Test results taken from patent publication US20170334899A1, “AMINO-SUBSTITUTED ISOTHIAZOLES” (Bayer Pharma Aktiengesellschaft, priority 2014, published 2017).

Legend:
[1] = target: T1, CDK2/CycE (Homo sapiens, UniProt P24941); assay: CDK2/CycE kinase assay (TR-FRET); format: biochemical; conditions: avg, read-out: CDK2 avg (IC50 [mol/l])
T1 construct: GST; purchased ProQinase GmbH (Freiburg, Germany); host or cells: insect cells (Sf9)
How it was run: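 GST-tagged human CDK2 and CycE from Sf9 cells, preincubated 15 min with compound, then 25 min at 22° C. with 10 μM ATP and 0.75 μM biotinylated Rb-derived peptide (final). Phospho-substrate read by TR-FRET (anti-pRB pSer807/pSer811, Eu anti-mouse IgG, streptavidin-XL665), 665/620 nm ratio, normalised to no-inhibitor and no-enzyme controls.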

[2] = target: T2, catalytic domain of human Bub1 (amino acids 704-1085) (Homo sapiens, UniProt O43683); assay: Bub1 kinase assay (TR-FRET); format: biochemical; conditions: 10 μM ATP, avg, read-out: Bub1 avg (IC50 [mol/l])
T2 construct: catalytic domain of human Bub1 (amino acids 704-1085); His6 (N); made in house; host or cells: insect cells (Hi5)
T2 sequence (O43683 704-1085): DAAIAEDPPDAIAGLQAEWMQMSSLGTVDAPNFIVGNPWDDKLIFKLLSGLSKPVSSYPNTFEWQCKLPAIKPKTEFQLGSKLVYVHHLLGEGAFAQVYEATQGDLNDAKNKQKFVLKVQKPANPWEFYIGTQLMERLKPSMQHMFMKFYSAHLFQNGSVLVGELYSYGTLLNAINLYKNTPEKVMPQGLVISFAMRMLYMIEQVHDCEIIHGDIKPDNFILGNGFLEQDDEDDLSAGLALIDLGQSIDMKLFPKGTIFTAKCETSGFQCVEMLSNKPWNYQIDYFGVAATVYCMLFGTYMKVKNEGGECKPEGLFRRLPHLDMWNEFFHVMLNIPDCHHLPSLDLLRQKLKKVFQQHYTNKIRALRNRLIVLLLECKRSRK
How it was run: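 Readout is the 665/620 nm TR-FRET ratio from anti-phosphoserine antibody, Eu-labelled anti-mouse IgG and streptavidin-XL665, scaled between no-enzyme and uninhibited controls. Reaction: 1 μM biotinylated peptide, 10 μM ATP, 60 min, 22 °C, after 15 min compound preincubation with His6-Bub1 (704-1085, insect-expressed, ~200 ng/ml).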

Structure (SMILES) | IC50 [1] [µM] | IC50 [2] [µM]
Cc1nsc(Nc2cncc(C(F)(F)F)n2)c1C(=O)Nc1ccc(OC2CCN(CCF)CC2)c(F)c1 [Example 223, N-(3-fluoro-4-{[1-(2-fluoroethyl)piperidin-4-yl]oxy}phenyl)-3-methyl-5-{[6-(trifluoromethyl)pyrazin-2-yl]amino}-1,2-thiazole-4-carboxamide] | > 20 | > 20
Cc1nsc(Nc2cncc(C(F)(F)F)n2)c1C(=O)Nc1ccc(OC2CCN(CC(F)F)CC2)c(F)c1 [Example 224, N-(4-{[1-(2,2-difluoroethyl)piperidin-4-yl]oxy}-3-fluorophenyl)-3-methyl-5-{[6-(trifluoromethyl)pyrazin-2-yl]amino}-1,2-thiazole-4-carboxamide] | > 20 | > 20
Cc1nsc(Nc2cncc(C(F)(F)F)n2)c1C(=O)Nc1ccc(C(=O)NC2CCN(CC(F)F)CC2)cc1 [Example 225, N-N-(4-{[1-(2,2-difluoroethyl)piperidin-4-yl]carbamoyl}phenyl)-3-methyl-5-{[6-(trifluoromethyl)pyrazin-2-yl]amino}-1,2-thiazole-4-carboxamide] | > 20 | > 20
Cc1nsc(Nc2cnc(C(F)(F)F)cn2)c1C(=O)Nc1ccc(OCC2CCCN(C(=O)OC(C)(C)C)C2)nc1 (stereo not drawn) [Example 228, tert-butyl 3-{[(5-{[(3-methyl-5-{[5-(trifluoromethyl)pyrazin-2-yl]amino}-1,2-thiazol-4-yl)carbonyl]amino}pyridin-2-yl)oxy]methyl}piperidine-1-carboxylate] | > 20 | > 20
Cc1nsc(Nc2cnc(C(F)(F)F)cn2)c1C(=O)Nc1ccc(F)c(OC2CCN(C(=O)OC(C)(C)C)CC2)c1 [Example 229, tert-butyl 4-(2-fluoro-5-{[(3-methyl-5-{[5-(trifluoromethyl)pyrazin-2-yl]amino}-1,2-thiazol-4-yl)carbonyl]amino}phenoxy)piperidine-1-carboxylate] | > 20 | > 20
Cc1nsc(Nc2cnc3ccccc3n2)c1C(=O)Nc1ccc(Oc2cccnc2)nc1 [Example 231, 3-methyl-N-[6-(pyridin-3-yloxy)pyridin-3-yl]-5-(quinoxalin-2-ylamino)-1,2-thiazole-4-carboxamide] | > 20 | > 20
Cc1nsc(Nc2cnc3ccccc3n2)c1C(=O)Nc1ccc(NCC2CCN(C(=O)OC(C)(C)C)CC2)nc1 [Example 238, tert-butyl 4-({[5-({[3-methyl-5-(quinoxalin-2-ylamino)-1,2-thiazol-4-yl]carbonyl}amino)pyridin-2-yl]amino}methyl)piperidine-1-carboxylate] | > 20 | > 20
Cc1nsc(Nc2cc(C#N)ccn2)c1C(=O)Nc1cccc(C(=O)OC(C)(C)C)c1 [Example 239, tert-butyl 3-[({5-[(4-cyanopyridin-2-yl)amino]-3-methyl-1,2-thiazol-4-yl}carbonyl)amino]benzoate] | > 20 | > 20
Cc1nsc(Nc2ccc(C#N)cn2)c1C(=O)Nc1cccc(C(=O)OC(C)(C)C)c1 [Example 240, tert-butyl 3-[({5-[(5-cyanopyridin-2-yl)amino]-3-methyl-1,2-thiazol-4-yl}carbonyl)amino]benzoate] | > 20 | > 20
Cc1nsc(Nc2cnc3ccccc3n2)c1C(=O)Nc1ccc(NC2CCCN(C(=O)OC(C)(C)C)C2)nc1 (stereo not drawn) [Example 241, tert-butyl 3-{[5-({[3-methyl-5-(quinoxalin-2-ylamino)-1,2-thiazol-4-yl]carbonyl}amino)pyridin-2-yl]amino}piperidine-1-carboxylate] | > 20 | > 20

Next, values leading:

IC50 [1] [µM] | IC50 [2] [µM] | Structure (SMILES)
> 20 | > 20 | Cc1nsc(Nc2cncc(C(F)(F)F)n2)c1C(=O)Nc1ccc(OCC2CCN(C(=O)OC(C)(C)C)CC2)nc1 [Example 226, tert-butyl 4-{[(5-{[(3-methyl-5-{[6-(trifluoromethyl)pyrazin-2-yl]amino}-1,2-thiazol-4-yl)carbonyl]amino}pyridin-2-yl)oxy]methyl}piperidine-1-carboxylate]
> 20 | > 20 | Cc1nsc(Nc2cnc(C(F)(F)F)cn2)c1C(=O)Nc1ccc(OCC2CCN(C(=O)OC(C)(C)C)CC2)nc1 [Example 227, tert-butyl 4-{[(5-{[(3-methyl-5-{[5-(trifluoromethyl)pyrazin-2-yl]amino}-1,2-thiazol-4-yl)carbonyl]amino}pyridin-2-yl)oxy]methyl}piperidine-1-carboxylate]
> 20 | > 20 | Cc1nsc(Nc2cc(C#N)ccn2)c1C(=O)Nc1ccc(Oc2cccc(C(F)(F)F)c2)nc1 [Example 230, 5-[(4-cyanopyridin-2-yl)amino]-3-methyl-N-{6-[3-(trifluoromethyl)phenoxy]pyridin-3-yl}-1,2-thiazole-4-carboxamide]
> 20 | > 20 | Cc1nsc(Nc2cnc3ccccc3n2)c1C(=O)Nc1ccc(Oc2ccc(SC(F)(F)F)cc2)nc1 [Example 233, 3-methyl-5-(quinoxalin-2-ylamino)-N-(6-{4-[(trifluoromethyl)sulfanyl]phenoxy}pyridin-3-yl)-1,2-thiazole-4-carboxamide]
> 20 | > 20 | Cc1nsc(Nc2cnc3ccccc3n2)c1C(=O)Nc1ccc(NC2CCN(C(=O)OC(C)(C)C)CC2)nc1 [Example 234, tert-butyl 4-{[5-({[3-methyl-5-(quinoxalin-2-ylamino)-1,2-thiazol-4-yl]carbonyl}amino)pyridin-2-yl]amino}piperidine-1-carboxylate]
> 20 | > 20 | COc1ccc(NC(=O)c2c(C)nsc2Nc2cnc3ccccc3n2)c(CC#N)n1 [Example 235, N-[2-(cyanomethyl)-6-methoxypyridin-3-yl]-3-methyl-5-(quinoxalin-2-ylamino)-1,2-thiazole-4-carboxamide]
> 20 | > 20 | Cc1nsc(Nc2cnc3ccccc3n2)c1C(=O)Nc1ccc(NCCC(=O)OC(C)(C)C)nc1 [Example 236, tert-butyl N-[5-({[3-methyl-5-(quinoxalin-2-ylamino)-1,2-thiazol-4-yl]carbonyl}amino)pyridin-2-yl]-beta-alaninate]
> 20 | > 20 | COC(=O)c1cc(NC(=O)c2c(C)nsc2Nc2cnc3ccccc3n2)cc(C(=O)OC)c1 [Example 237, dimethyl 5-({[3-methyl-5-(quinoxalin-2-ylamino)-1,2-thiazol-4-yl]carbonyl}amino)isophthalate]
> 20 | > 20 | Cc1nsc(Nc2cc(C#N)ccn2)c1C(=O)Nc1ccc(NC2CCCNC2)nc1 (stereo not drawn) [Example 242, 5-[(4-cyanopyridin-2-yl)amino]-3-methyl-N-[6-(piperidin-3-ylamino)pyridin-3-yl]-1,2-thiazole-4-carboxamide]
> 20 | > 20 | Cc1cc(C)n(-c2ccccc2NC(=O)c2c(C)nsc2Nc2cnc3ccccc3n2)n1 [Example 243, N-[2-(3,5-dimethyl-1H-pyrazol-1-yl)phenyl]-3-methyl-5-(quinoxalin-2-ylamino)-1,2-thiazole-4-carboxamide]
> 20 | > 20 | Cc1nsc(Nc2cnc3ccccc3n2)c1C(=O)Nc1ccc(NCCNC(=O)OC(C)(C)C)nc1 [Example 244, tert-butyl (2-{[5-({[3-methyl-5-(quinoxalin-2-ylamino)-1,2-thiazol-4-yl]carbonyl}amino)pyridin-2-yl]amino}ethyl)carbamate]
